Assay results from patent US20140243292A1, “SUBSITUTED 2-(CHROMAN-6-YLOXYL)-THIAZOLES AND THEIR USE AS PHARMACEUTICALS” (Sanofi, priority 2011, published 2014).

Target: T1, human NCX1 (Homo sapiens, UniProt P32418)
T1 construct: expressed in transfected cells
Experiment: NCX1 inhibition, reverse mode (Ca2+ influx into cells), FLIPR Fluo-4 assay
Type: cell-based
Conditions: inhibition of NCX1 in reverse mode (Ca2+ influx into cells); read-out: NCX1rv IC50
How it was run: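 CHO cells stably expressing human NCX1 were loaded with 2 µM Fluo-4 AM for 80 min at room temperature, then preincubated with compound for 45 min at 16 °C in pH 7.4 HEPES buffer (3.5 mM CaCl2, 2.5 mM probenecid). Reverse-mode Ca2+ influx was triggered by 20 µM final gramicidin and read at 520 nm on FLIPR. IC50 came from % inhibition of max−min fluorescence.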

Compound: Cc1ccccc1C1CCc2cc(Oc3ncc(C(=O)NCCO)s3)ccc2O1 (centres unmarked) [Example 299, 2-(2-o-Tolyl-chroman-6-yloxy)-thiazole-5-carboxylic acid (2-hydroxy-ethyl)-amide]
- IC50: 400 nM

Compound: Cc1ccccc1C1CCc2cc(Oc3ncc(CNC(=O)c4ccno4)s3)ccc2O1 (centres unmarked) [Example 329, Isoxazole-5-carboxylic acid [2-(2-o-tolyl-chroman-6-yloxy)-thiazol-5-ylmethyl]-amide]
- IC50: 600 nM
